Reference: patent publication US5215520A, “Method for delivering an active substance topically or percutaneously” (Centre Internationale de Recherches Dermatologiques …, priority 1991, dated 1993)

Assays:
[1] = Pharmacokinetic profile: blood and urine levels after single intravenous injection; format: in vivo, hairless female rats
Protocol: Prior to the in vivo experiments, a study was carried out to determine whether the levels of peptide in urine were significant. To this end, following a single intravenous injection of Thr-Lys-Pro, its levels in blood and urine were measured. This was carried out by an injection of 0.5 cm^3 of an aqueous solution containing 2 nmol/cm^3 of non-radiolabelled peptide and 5 μCi/cm^3 of radiolabelled peptide via the tail vein of five hairless female rats (198±12 g). The rats had been anaesthetised by an intraperitoneal injection of pentobarbital sodium (40 mg/kg). The rats were left in metabolic cages and blood samples were taken at 10, 15, 30 minutes and 1, 2, 3 and 24 hours following the peptide injection. Blood was removed from the retro-orbital sinus of the eye socket by capillary tube. The samples were weighed into a crucible (ashless paper) and allowed to dry overnight. The blood was then oxidized using a tri-carb oxidizer (model 306 sold by Packard Instrument Co. Inc.) and measured for radioactivity. Urine was collected from the cage after 24 hours and also measured for radioactivity.

[2] = rat, in vivo
Protocol: In these experiments, the levels of Thr-Lys-Pro peptide in urine following application of the peptide to the skin were measured.
Electrodes (105, 106) (Ag/AgC1) were tightly fitted to the stoppers (103, 104) and became enclosed within the chambers (101 and 102) when the chambers were closed by replacing the stoppers. The distance between the bottom of the electrode after the stopper has been replaced and the bottom of the chamber is 0.3 cm. The skin surface contact area was 3.80 cm^2 and the axes of the chambers were 42 mm apart. The electrodes were connected to a source of electric current (E). To enable the various experiments to be performed, chambers (101 and 102) were fixed to the skin (S) using a cyanoacrylate glue. […]
After 3 hours the electrodes were removed and the skin washed carefully with deionized water, then dried and stripped 5 times with adhesive tape (3M Co., St. Paul, Minn., U.S.A) and the strips discarded. […] The urine passed in the 24-hour period was collected and counted for radioactivity.
In the method of the invention, the skin was first subjected to 3 hours of electric current as in conventional iontophoresis, except that chamber 101 contained the gel of example 1 without peptide. […] The rats were then left as described previously in their metabolic cages for 24 hours and urine collected and measured for radioactivity. […]

Substance: Thr-Lys-Pro
- quantity of peptide present in urine ([1]; 24 hours after the intravenous injection, radioactivity): 63.6±8 % of the injected dose
- quantity of peptide in the blood ([1]; single intravenous injection, blood sampled 10 minutes to 24 hours): not detectable
- systemic absorption of peptide (total quantity in urine) vs passive method without current [2]: greater systemic absorption of peptides than the passive method without application of current
